# Results reported in patent publication US20150025017A1, “COMPOSITIONS AND METHODS FOR TREATING CANCER” (Fred Hutchinson Cancer Research Center, priority 2012, published 2015).
# Legend:
# Cells expressing Ras = test: sensitivity of Ras-expressing cells to drugs with reported splicing inhibition; format: cell-based; settings: FIG. 11
# GSC-H2B-GFP cells = test: live cell imaging of drug-treated cells; format: cell-based, human; settings: for timing of mitoses: GSCs, first hours after drug treatment; for mitotic arrest in live cell imaging: data not shown
# U2 snRNP subunit SF3b = U2 snRNP subunit SF3b (Homo sapiens, UniProt O75533+Q7RTV0); settings: Kaida et al. 2007; Corrionero et al. 2011; cited from earlier work
# [1] = test system: GSCs relative to NSCs (G166 or CB660 cells); test: cell viability of GSC or NSC cells after SSA / SudC1 (AlamarBlue); format: cell-based, human; settings: dilution series; FIGS. 3B and 3C
# Text: (§1) Along with high MPM-2 staining, and little or no phosphorylated BubR1, this is consistent with a pre-anaphase arrest in which the mitotic checkpoint has not been triggered.
# GSCs and NSCs = test: cell cycle arrest after SSA or SudC1; format: cell-based, human; settings: at doses within the efficacy window; data not shown
# Text: as §1
# H2B-GFP expressing GSCs = test: metaphase capture assay with MG132; format: cell-based, human; settings: overnight exposure to drug, then MG132 for 2 hours
# Protocol: The GSC-specific G2/M arrest was characterized by performing metaphase capture assays in H2B-GFP expressing GSCs treated with proteasome inhibitor MG132, which arrests mitotic cells at metaphase, blocking APCCdc20-dependent degradation of Cyclin B (Lampson and Kapoor 2005). After overnight exposure to SudC1 or SSA, cells were treated with MG132 for 2 hours. […] It was also observed that the viability loss in drug-treated GSC cultures results from the death of previously arrested mitotic cells and not interphase GSCs, identifying the cancer-specific mitotic arrest as a causative event in cancer cell death due to splicing inhibition.
# GSCs = test: cell cycle arrest phenotype (rounded cells) in GFP-expressing GSCs after shRNA; format: cell-based, human; settings: FIG. 2
# Text: Arrows point to rounded cells, which are those showing a cell arrest phenotype.
# In addition, the GSC and NSC containing two of the shRNA sequences targeting PHF5α, KIF11 (positive control), and a random clone (negative control) were examined by immunofluorescence analysis using DAPI staining and a fluorescent microscope. Cells that appeared balled up are ones that suffered cell cycle arrest, while elongated cells were unaffected in their proliferation. […] In contrast, inhibition of PHF5α produced a striking phenotype of a G2/M mitotic arrest in GSCs, but not in NSCs (data not shown).
# Ryzinski et al. (Cytogenet. […] Res. 121:232, 2008) identified PHF5α as a bridge protein capable of connecting members of the U2 snRNP, especially U2AF1 to RNA helicases, especially DDX1. To test whether, out of the possible known or unknown roles in a cell, the splicing functions of PHF5α is an important activity contributing to GSC survival and proliferation, shRNA knockdown similar to Example 2 was performed against each member of this bridging interaction—U2AF1 and DDX1.
# [2] = test system: RNA splicing in GSCs and NSCs; test: splicing defects on gels after SudC1; format: cell-based, human; settings: GSCs versus NSCs; FIG. 16
# Text: This example also describes the effects of two candidate small molecule inhibitors of the U2 snRNP complex, Spliceostatin A (SSA) and Sudemycin C1 (SudC1). […] (Kaida et al. 2007; Corrionero et al. 2011). […] It was reasoned that if the most relevant GSC-specific function of PHF5A is its function in the splicing activity of the U2 snRNP, then these drugs should show a similar pattern of effects on RNA splicing in GSCs and NSCs. This was indeed the case. […] In addition, after PHF5A knockdown, multiple constitutive exons of the well characterized RTK/Ras signaling effector RAF1 and the cancer-associated deacetylase HDAC6 were skipped GSCs but not in normal NSCs.
# IMR90+E1A/Ras = test: drug response assay, alamarBlue viability; format: cell-based, human; settings: 0.08-10.0 μM for 24 hours, viability at 72 hours; FIG. 9A
# Text: (§2) Approximately 88% of clinical glioblastoma tumors harbor mutations that activate signaling through the Ras/PI3-kinase pathways (The Cancer Genome Atlas Research Network, Nature 455:1061, 2008). Since PHF5α inhibition is detrimental to a range of glioblastoma cell cultures, but not to the normal NSC from which most glioblastomas are thought to arise, transformation from a normal cell to a cancer cell was examined to determine whether PHF5α dependence was acquired during this process. Accordingly, Ras signaling was activated in normal IMR90 fibroblast cells by infecting with a retrovirus encoding the ElA and Ras oncogenes (EIA was included because Ras alone would be lethal in these cells). These partially transformed fibroblasts were probed for their response to shPHF5α inhibition and to a U2 snRNP splicing inhibitor (sudemycin C1). Viral shRNA knockdown was performed as described in the above examples. For drug response assays, cells were plated in 96-well plates and contacted with a range of sudemycin C1 concentrations (0.08, 0.16, 0.31, 0.63, 1.25, 2.50, 5.0 or 10.0 μM) for a period of 24 hours. Media was then removed and replaced with fresh media, then cell viability was measured 72 hours after drug exposure using the alamarBlue® assay (Invitrogen).
# [3] = test system: normal IMR90 fibroblast cells; test: drug response assay, alamarBlue viability; format: cell-based, human; settings: 0.08-10.0 μM for 24 hours, viability at 72 hours; FIG. 9A
# Text: as §2
# RNA splicing = settings: Lagisetti et al. 2008, 2009; Fan et al. 2011; cited from earlier work
# [4] = test system: MEF cells with the addition of oncogenic Ras signaling; test: viability after sudemycin treatment; format: cell-based, mouse
# Text: as §2, with “(Invitrogen). […]” for “(Invitrogen).”
# [5] = test system: Non-transformed MEF cells; test: viability after sudemycin treatment; format: cell-based, mouse
# [6] = test system: GSC primary cell cultures and normal NSC control cells; test: alamarBlue cell viability after shRNA knockdown; format: cell-based, human; settings: shRNA virus, puromycin selection, one week, FIG. 1A
# Text: (§3) To verify the robustness and reproducibility of PHF5α loss in GSC growth inhibition, the normal NSC control cells and a panel of five GSC primary cell cultures were infected with viruses encoding three different shRNA sequences targeting PHF5α (shPHF5α-133 (SEQ ID NO.:11), shPHF5α-402 (SEQ ID NO.:10), and shPHF5α-861 (SEQ ID NO.:9)), as well as a positive control (shKIF11-555 (SEQ ID NO.:19); blocking kinesin family member 11 (KIF11) prevents centrosome migration, which arrests cells in mitosis) and negative control (shCtrl). Cultures were selected with puromycin, plated at about 1000 cells per well in 96-well plates, and incubated for one week at 37° C./5% CO2 before assaying cell viability using the alamarBlue® assay (Invitrogen, Gand Island, N.Y.). Briefly, resazurin (a blue compound that is non-toxic, cell permeable compound and essentially non-fluorescent) is added to the cell cultures, which is reduced to resorufin upon entering metabolically active cells (in contrast, non-viable or damaged cells cannot do this effectively). Resorufin is a bright red fluorescent molecule that functions as a colorimetric indicator. In addition, all three shRNA viruses were internally validated to knock down PHF5α at both the RNA and protein levels (data not shown).
# PHF5α = test: immunostained western blot of PHF5α protein after shRNA; format: cell-based, human; settings: GSCs (G166, 0827, 0131) and NSCs, relative to shCtrl; FIG. 1B
# Sequence of PHF5α (Q7RTV0 whole entry): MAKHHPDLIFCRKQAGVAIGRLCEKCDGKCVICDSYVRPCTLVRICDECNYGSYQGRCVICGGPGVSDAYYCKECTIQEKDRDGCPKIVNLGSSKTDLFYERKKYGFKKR
# Text: (B) is an immunostained western blot showing PHF5α protein levels are reduced in GSCs (G166, 0827, 0131) and NSCs when exposed to a short hairpin RNA (shRNA) that reduces PHF5α RNA levels (shPHF5α-133 (SEQ ID NO.:11), shPHF5α-402 (SEQ ID NO.:10), shPHF5α-861 (SEQ ID NO.:9)) relative to the levels of PHF5α in cells treated with a non-silencing control shRNA (shCtrl).
# as §3
compound,measurement,setting,value
Clc1ccccc1C(c1ccccc1)(c1ccccc1)n1ccnc1 [Clotrimazole],differential sensitivity of cells expressing Ras,Cells expressing Ras,not differentially sensitive
"CO[C@]1(C)C[C@@]2(CO2)[C@H](O)[C@@H](/C=C/C(C)=C/C[C@@H]2O[C@H](C)[C@H](NC(=O)/C=C\[C@H](C)OC(C)=O)C[C@@H]2C)O1 [SSA, Spliceostatin A]",timing of mitoses,GSC-H2B-GFP cells,did not affect the timing of mitoses for several hours after drug treatment
same,mitotic arrest in live cell imaging,GSC-H2B-GFP cells,mitotic arrest pre-metaphase
same,binding and inhibition of SF3b,U2 snRNP subunit SF3b,binds to and inhibits
same,viability loss in GSCs relative to NSCs,[1],greater dose-dependent viability loss in GSCs relative to NSCs
same,cell cycle arrest,GSCs and NSCs,characteristic cell cycle arrest in GSCs but not NSCs
same,metaphase arrest with MG132,H2B-GFP expressing GSCs,unable to properly arrest
same,differential sensitivity of cells expressing Ras,Cells expressing Ras,differentially sensitive
CCN1/C(=C/C(C)=O)Sc2ccc(OC)cc21 [TG003],differential sensitivity of cells expressing Ras,Cells expressing Ras,not differentially sensitive
[H]/N=C(\N/C(=N/[H])NCCCCCCNC(=N)NC(=N)Nc1ccc(Cl)cc1)Nc1ccc(Cl)cc1 [chlorhexidine],differential sensitivity of cells expressing Ras,Cells expressing Ras,not differentially sensitive
Fc1ccc(C(c2ccc(F)cc2)N2CCN(C/C=C/c3ccccc3)CC2)cc1 [flunarizine],differential sensitivity of cells expressing Ras,Cells expressing Ras,not differentially sensitive
"DDX1-301: shRNA targeting DDX1, ACACGGTGTTCCTTATGTTATA, SEQ ID NO. 18 (listed as DNA, chemistry not fully specified)",cell cycle arrest,GSCs,undergone cell cycle arrest
Pladienolide B,differential sensitivity of cells expressing Ras,Cells expressing Ras,differentially sensitive
Sudemycin C1 [SudC1],splicing defects,[2],dose-dependent GSC-specific splicing defects
same,sensitivity of cell viability,IMR90+E1A/Ras,greatly sensitized
same,sensitivity of cell viability,[3],relatively resistant
same,timing of mitoses,GSC-H2B-GFP cells,did not affect the timing of mitoses for several hours after drug treatment
same,mitotic arrest in live cell imaging,GSC-H2B-GFP cells,mitotic arrest pre-metaphase
same,modulation of RNA splicing,RNA splicing,modulates RNA splicing
same,sensitivity of cell viability,[4],greatly sensitized
same,viability loss in GSCs relative to NSCs,[1],greater dose-dependent viability loss in GSCs relative to NSCs
same,sensitivity of cell viability,[5],relatively resistant
same,cell cycle arrest,GSCs and NSCs,characteristic cell cycle arrest in GSCs but not NSCs
same,metaphase arrest with MG132,H2B-GFP expressing GSCs,unable to properly arrest
same,differential sensitivity of cells expressing Ras,Cells expressing Ras,differentially sensitive
"shPHF5α-133: shRNA targeting PHF5α, ACTCAACCAAGATCTTCTAAAA, SEQ ID NO. 11 (listed as DNA, chemistry not fully specified)",proliferation of GSCs compared to NSCs,[6],greater reduction in proliferation of GSCs compared to normal neural stem cells
same,PHF5α protein levels,PHF5α,reduced
"shPHF5α-402: shRNA targeting PHF5α, AGCATTTACTTGTTTAACACTT, SEQ ID NO. 10 (listed as DNA, chemistry not fully specified)",proliferation of GSCs compared to NSCs,[6],greater reduction in proliferation of GSCs compared to normal neural stem cells
same,PHF5α protein levels,PHF5α,reduced
"shPHF5α-861: shRNA targeting PHF5α, CGCCCACTAGTCTCATATTATT, SEQ ID NO. 9 (listed as DNA, chemistry not fully specified)",proliferation of GSCs compared to NSCs,[6],greater reduction in proliferation of GSCs compared to normal neural stem cells
same,cell cycle arrest,GSCs,undergone cell cycle arrest
same,PHF5α protein levels,PHF5α,reduced
"shU2AF1-100: shRNA targeting U2AF1, CGGCTGTGATTGACTTGAATAA, SEQ ID NO. 1 (listed as DNA, chemistry not fully specified)",cell cycle arrest,GSCs,undergone cell cycle arrest
